Data as given in patent US20080234276A1, “Heterocyclic Triazines as Hypoxic Selective Protein Kinase Inhibitors” (SENTINEL ONCOLOGY LIMITED, priority 2005, published 2008).
Each block holds one compound with its values, some of them ahead of it.

Key:
Format in all cases: biochemical
p70S6K (h) = biological target: T1, p70S6K (h) (Homo sapiens, UniProt P23443); assay: p70S6K (h) kinase assay (Upstate, 33P-ATP filtermat); settings: 100 uM of inhibitor, ATP 15 uM; for inhibition at 100 µM: read-out: P70S6 (h) % inhibition
T1 construct: purchased Upstate Ltd
T1 sequence (P23443 whole entry): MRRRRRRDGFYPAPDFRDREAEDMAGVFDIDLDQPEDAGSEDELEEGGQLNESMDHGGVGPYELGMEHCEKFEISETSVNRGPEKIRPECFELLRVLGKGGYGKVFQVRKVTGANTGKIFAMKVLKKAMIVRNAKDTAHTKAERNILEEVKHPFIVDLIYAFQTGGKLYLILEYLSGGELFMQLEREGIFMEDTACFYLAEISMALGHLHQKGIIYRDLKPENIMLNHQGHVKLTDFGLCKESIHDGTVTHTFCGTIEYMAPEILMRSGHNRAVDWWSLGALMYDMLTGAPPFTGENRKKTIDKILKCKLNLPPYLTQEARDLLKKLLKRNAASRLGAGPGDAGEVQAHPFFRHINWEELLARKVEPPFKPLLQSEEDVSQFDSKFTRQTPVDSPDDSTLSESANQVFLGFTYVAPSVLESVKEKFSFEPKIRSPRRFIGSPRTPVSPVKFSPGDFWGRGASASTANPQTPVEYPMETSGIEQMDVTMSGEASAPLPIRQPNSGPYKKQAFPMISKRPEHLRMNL
Description: (§1) The compounds of the invention prepared in Examples 1-32 were tested for kinase inhibition against a range of common protein kinases. All kinase assays were conducted at Upstate Ltd, Gemini Crescent, Dundee Technology Park, Dundee, DD2 1SW, UK in accordance with its standard protocols as follows:
(§2) In a final reaction volume of 25 μl, p70S6K (h) (5-10 mU) is incubated with 8 mM MOPS pH 7.0, 0.2 mM EDTA, 100 μM KKRNRTLTV, 10 mM MgAcetate and [[…]-33P-ATP] (specific activity approx. 500 cpm/pmol, concentration as required). The reaction is initiated by the addition of the MgATP mix. After incubation for 40 minutes at room temperature, the reaction is stopped by the addition of 5 μl of a 3% phosphoric acid solution. 10 μl of the reaction is then spotted onto a P30 filtermat and washed three times for 5 minutes in 75 mM phosphoric acid and once in methanol prior to drying and scintillation counting.
(§3) Data for compounds. ATP concentrations are: Arg=45 uM; abl=45 uM; AuroraA=15 uM; Chk1=90 uM; KDR=90 uM; P70S6=15 uM. Figures represent the % inhibition when tested at 100 uM of inhibitor.

CHK1 (h) = biological target: T2, CHK1 (h) (Homo sapiens, UniProt O14757); assay: CHK1 (h) kinase assay (Upstate, 33P-ATP filtermat); settings: 100 uM of inhibitor; ATP 90 uM
T2 construct: purchased Upstate Ltd
T2 sequence (O14757 1-476): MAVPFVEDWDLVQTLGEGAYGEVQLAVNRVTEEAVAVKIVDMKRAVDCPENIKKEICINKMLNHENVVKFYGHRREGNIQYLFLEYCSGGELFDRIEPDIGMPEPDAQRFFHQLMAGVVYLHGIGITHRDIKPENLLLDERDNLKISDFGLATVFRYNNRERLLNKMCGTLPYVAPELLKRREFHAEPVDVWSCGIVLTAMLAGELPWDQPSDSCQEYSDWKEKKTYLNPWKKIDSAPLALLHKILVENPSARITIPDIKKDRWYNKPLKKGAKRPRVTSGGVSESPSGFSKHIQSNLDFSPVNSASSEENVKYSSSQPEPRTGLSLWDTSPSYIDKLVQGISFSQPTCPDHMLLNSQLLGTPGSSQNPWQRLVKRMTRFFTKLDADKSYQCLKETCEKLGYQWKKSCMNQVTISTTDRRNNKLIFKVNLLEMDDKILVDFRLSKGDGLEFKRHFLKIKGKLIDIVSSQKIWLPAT
Description: as §1
as §2, with “CHK1” for “p70S6K”, “200” for “100”, “[…],” for “KKRNRTLTV,”, “[…]-33P-ATP]” for “[[…]-33P-ATP]”
as §3

Aurora-A (h) = biological target: T3, Aurora-A (h) (Homo sapiens, UniProt O14965); assay: Aurora-A (h) kinase assay (Upstate, 33P-ATP filtermat); settings: 100 uM of inhibitor, ATP 15 uM; for inhibition at 100 µM: read-out: AuroraA (h) % inhibition
T3 construct: purchased Upstate Ltd
T3 sequence (O14965 1-403): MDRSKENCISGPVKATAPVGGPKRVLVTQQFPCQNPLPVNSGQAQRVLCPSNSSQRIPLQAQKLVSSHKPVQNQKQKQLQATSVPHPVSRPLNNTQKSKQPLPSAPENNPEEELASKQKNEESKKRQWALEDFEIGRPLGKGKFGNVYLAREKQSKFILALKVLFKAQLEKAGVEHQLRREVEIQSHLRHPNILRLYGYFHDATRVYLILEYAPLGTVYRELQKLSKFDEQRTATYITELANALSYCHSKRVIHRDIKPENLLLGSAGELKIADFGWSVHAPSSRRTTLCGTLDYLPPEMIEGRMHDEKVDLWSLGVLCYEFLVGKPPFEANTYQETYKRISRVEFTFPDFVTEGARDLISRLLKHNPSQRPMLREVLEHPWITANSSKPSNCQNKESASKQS
Description: as §1
as §2, with “Aurora-A” for “p70S6K”, “200” for “100”, “LRRASLG (Kemptide),” for “KKRNRTLTV,”, “[…]-33P-ATP]” for “[[…]-33P-ATP]”, “50” for “75”
as §3

KDR (h) = biological target: T4, KDR (h) (Homo sapiens, UniProt P35968); assay: KDR (h) kinase assay (Upstate, 33P-ATP filtermat); settings: 100 uM of inhibitor; ATP 90 uM
T4 construct: purchased Upstate Ltd
T4 sequence (P35968 20-1356): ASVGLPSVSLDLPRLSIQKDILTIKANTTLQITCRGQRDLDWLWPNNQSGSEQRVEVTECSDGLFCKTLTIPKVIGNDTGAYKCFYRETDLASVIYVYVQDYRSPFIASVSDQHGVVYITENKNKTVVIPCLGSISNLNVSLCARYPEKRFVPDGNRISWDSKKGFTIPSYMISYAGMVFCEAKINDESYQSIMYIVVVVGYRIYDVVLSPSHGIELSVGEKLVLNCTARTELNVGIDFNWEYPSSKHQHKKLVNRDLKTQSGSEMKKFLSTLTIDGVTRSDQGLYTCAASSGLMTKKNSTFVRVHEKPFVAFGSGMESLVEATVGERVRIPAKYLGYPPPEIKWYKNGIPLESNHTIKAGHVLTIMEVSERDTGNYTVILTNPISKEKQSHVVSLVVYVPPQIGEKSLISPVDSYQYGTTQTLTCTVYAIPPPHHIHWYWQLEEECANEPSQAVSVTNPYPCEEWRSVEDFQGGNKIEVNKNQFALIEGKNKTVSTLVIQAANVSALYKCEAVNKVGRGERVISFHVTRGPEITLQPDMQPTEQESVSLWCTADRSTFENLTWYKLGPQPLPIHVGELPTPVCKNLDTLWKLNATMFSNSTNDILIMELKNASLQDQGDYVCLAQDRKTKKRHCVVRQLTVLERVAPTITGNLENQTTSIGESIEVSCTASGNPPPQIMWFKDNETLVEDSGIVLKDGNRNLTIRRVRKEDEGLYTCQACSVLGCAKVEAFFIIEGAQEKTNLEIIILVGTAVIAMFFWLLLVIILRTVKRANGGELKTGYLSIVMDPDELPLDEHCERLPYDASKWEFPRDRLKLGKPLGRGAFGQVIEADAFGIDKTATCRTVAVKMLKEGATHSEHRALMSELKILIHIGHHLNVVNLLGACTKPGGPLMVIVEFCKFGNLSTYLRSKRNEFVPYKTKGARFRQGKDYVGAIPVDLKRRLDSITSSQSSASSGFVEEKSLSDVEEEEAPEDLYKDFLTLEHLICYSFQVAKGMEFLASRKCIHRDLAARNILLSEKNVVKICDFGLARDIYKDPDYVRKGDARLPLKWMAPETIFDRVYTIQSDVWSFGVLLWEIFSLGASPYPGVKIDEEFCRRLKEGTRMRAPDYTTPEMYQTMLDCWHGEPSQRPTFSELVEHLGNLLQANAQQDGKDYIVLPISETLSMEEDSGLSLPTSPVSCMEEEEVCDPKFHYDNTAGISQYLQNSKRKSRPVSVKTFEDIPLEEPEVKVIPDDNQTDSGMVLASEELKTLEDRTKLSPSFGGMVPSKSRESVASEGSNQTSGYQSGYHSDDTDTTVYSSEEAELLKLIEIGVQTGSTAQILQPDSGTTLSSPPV
Description: as §1
as §2, with “KDR” for “p70S6K”, “0.33 mg/ml myelin basic protein,” for “100 μM KKRNRTLTV,”
as §3

Abl (h) = biological target: T5, Abl (h) (Homo sapiens, UniProt P00519); assay: Abl (h) kinase assay (Upstate, 33P-ATP filtermat); settings: 100 uM of inhibitor; ATP 45 uM
T5 construct: purchased Upstate Ltd
T5 sequence (P00519 whole entry): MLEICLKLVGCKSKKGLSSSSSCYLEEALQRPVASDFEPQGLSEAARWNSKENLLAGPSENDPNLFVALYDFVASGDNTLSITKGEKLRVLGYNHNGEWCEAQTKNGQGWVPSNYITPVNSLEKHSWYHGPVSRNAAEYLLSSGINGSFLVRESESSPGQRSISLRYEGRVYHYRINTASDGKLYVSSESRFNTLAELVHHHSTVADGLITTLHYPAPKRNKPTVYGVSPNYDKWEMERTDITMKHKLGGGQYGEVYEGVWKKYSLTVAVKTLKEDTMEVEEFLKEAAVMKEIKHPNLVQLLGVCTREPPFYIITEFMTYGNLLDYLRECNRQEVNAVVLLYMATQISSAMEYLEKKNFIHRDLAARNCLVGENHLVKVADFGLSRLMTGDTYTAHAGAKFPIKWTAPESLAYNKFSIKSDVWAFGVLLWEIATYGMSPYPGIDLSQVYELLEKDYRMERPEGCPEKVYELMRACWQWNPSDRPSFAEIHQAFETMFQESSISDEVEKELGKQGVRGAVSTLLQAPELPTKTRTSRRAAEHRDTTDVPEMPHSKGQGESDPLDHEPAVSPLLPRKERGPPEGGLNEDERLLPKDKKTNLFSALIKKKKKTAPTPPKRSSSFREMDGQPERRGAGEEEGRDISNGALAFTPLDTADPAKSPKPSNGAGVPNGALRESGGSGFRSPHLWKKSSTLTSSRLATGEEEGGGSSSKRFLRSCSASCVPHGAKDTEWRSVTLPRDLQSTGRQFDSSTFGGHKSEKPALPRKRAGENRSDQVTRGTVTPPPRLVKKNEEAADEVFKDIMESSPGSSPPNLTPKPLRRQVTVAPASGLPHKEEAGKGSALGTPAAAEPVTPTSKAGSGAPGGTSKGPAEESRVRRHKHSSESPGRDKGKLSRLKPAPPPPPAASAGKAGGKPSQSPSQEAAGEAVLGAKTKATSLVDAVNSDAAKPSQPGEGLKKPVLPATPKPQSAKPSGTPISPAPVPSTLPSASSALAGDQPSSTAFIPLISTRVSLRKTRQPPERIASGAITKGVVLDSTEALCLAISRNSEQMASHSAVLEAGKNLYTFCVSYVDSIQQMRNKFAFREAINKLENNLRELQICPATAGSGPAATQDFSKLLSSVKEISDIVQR
Description: as §1
as §2, with “Abl” for “p70S6K”, “50” for “100”, “EAIYAAPFAKKK,” for “KKRNRTLTV,”
as §3

Arg (h) = biological target: T6, Arg (h) (Homo sapiens, UniProt P42684); assay: Arg (h) kinase assay (Upstate, 33P-ATP filtermat); settings: 100 uM of inhibitor; ATP 45 uM
T6 construct: purchased Upstate Ltd
T6 sequence (P42684 whole entry): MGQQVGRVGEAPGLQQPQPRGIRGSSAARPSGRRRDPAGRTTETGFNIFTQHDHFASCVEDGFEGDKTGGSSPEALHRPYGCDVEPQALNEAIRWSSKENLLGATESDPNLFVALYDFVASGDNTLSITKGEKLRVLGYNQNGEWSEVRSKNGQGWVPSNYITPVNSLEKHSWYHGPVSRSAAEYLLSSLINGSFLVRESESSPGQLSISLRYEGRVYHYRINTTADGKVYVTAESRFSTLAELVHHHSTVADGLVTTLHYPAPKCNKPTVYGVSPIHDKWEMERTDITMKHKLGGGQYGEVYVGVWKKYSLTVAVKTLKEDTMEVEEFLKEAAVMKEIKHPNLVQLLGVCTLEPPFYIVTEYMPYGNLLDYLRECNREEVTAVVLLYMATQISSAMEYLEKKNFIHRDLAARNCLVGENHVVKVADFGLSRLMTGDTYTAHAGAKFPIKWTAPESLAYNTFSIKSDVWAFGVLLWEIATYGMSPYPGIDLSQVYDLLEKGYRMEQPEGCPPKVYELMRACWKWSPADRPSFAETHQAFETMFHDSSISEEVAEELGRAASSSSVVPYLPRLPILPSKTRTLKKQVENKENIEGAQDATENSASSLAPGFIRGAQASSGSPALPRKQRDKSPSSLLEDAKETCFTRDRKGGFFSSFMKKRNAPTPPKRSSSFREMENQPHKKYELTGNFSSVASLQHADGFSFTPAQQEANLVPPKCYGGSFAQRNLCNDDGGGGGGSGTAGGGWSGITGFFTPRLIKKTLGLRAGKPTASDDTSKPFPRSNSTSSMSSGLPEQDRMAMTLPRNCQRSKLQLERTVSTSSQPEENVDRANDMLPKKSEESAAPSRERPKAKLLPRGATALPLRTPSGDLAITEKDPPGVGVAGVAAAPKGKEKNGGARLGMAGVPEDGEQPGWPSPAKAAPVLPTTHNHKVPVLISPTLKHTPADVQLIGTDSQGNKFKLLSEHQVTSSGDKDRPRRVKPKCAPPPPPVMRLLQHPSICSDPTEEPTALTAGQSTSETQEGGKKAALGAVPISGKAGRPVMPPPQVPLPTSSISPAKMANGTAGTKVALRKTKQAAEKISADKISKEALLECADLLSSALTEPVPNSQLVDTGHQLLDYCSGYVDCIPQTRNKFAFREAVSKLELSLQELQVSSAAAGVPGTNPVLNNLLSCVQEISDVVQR
Description: as §1
as §2, with “Arg” for “p70S6K”, “50” for “100”, “EAIYAAPFAKKK,” for “KKRNRTLTV,”
as §3

P70S6 (h) % inhibition (p70S6K (h)): 0% | Chk1 (h) % inhibition (CHK1 (h)): 14% | AuroraA (h) % inhibition (Aurora-A (h)): 64%
SMILES: [O-][n+]1nc(Nc2cccnc2)nc2ccccc21 [Example 4, (1-Oxy-benzo[1,2,4]triazin-3-yl)-pyridin-3-yl-amine]

Chk1 (h) % inhibition (CHK1 (h)): 20% | AuroraA (h) % inhibition (Aurora-A (h)): 40%
SMILES: Cc1cc(Nc2nc3ccccc3[n+]([O-])n2)n[nH]1 [Example 10, (5-Methyl-1H-pyrazol-3-yl)-(1-oxy-benzo[1,2,4]triazin-3-yl)-amine]

inhibition at 100 µM (KDR (h)): 97% | inhibition at 100 µM (p70S6K (h)): 87% | inhibition at 100 µM (CHK1 (h)): 3% | inhibition at 100 µM (Aurora-A (h)): 69%
SMILES: [O-][n+]1nc(-c2cn[nH]c2)nc2ccccc21 [Example 12, 3-(1H-Pyrazol-4-yl)-benzo[1,2,4]triazine 1-oxide]

inhibition at 100 µM (KDR (h)): 80% | inhibition at 100 µM (p70S6K (h)): 92% | inhibition at 100 µM (CHK1 (h)): 13% | inhibition at 100 µM (Aurora-A (h)): 90%
SMILES: c1ccc2nc(-c3cn[nH]c3)nnc2c1 [Example 13, 3-(1H-Pyrazol-4-yl)-benzo[1,2,4]triazine]

inhibition at 100 µM (KDR (h)): 17% | inhibition at 100 µM (p70S6K (h)): 10% | inhibition at 100 µM (Aurora-A (h)): 41%
SMILES: c1ccc2nc(-c3cc[nH]n3)nnc2c1 [Example 16, 3-(1H-Pyrazol-3-yl)-benzo[1,2,4]triazine]

inhibition at 100 µM (Abl (h)): 89% | inhibition at 100 µM (Arg (h)): 95% | inhibition at 100 µM (Aurora-A (h)): 79%
SMILES: c1ccc2nc(Nc3ccc(N4CCNCC4)nc3)nnc2c1 [Example 19, Benzo[1,2,4]triazin-3-yl-(6-piperazin-1-yl-pyridin-3-yl)-amine]

inhibition at 100 µM (Abl (h)): 76% | inhibition at 100 µM (Arg (h)): 84% | inhibition at 100 µM (Aurora-A (h)): 58%
SMILES: Clc1ccc2nnc(Nc3cccnc3)nc2c1 [Example 21, (6-Chloro-benzo[1,2,4]triazin-3-yl)-pyridin-3-yl-amine]

AuroraA (h) % inhibition (Aurora-A (h)): 92%
SMILES: [O-][n+]1nc(Nc2cccnc2)nc2cc(-c3ccccc3)ccc21 [Example 24, (1-Oxy-6-phenyl-benzo[1,2,4]triazin-3-yl)-pyridin-3-yl-amine]

KDR (h) % inhibition (KDR (h)): 3% | P70S6 (h) % inhibition (p70S6K (h)): 62%
SMILES: Cl.Nc1nc2cc(OCC3CCNCC3)ccc2[n+]([O-])n1 [Example 27, 1-Oxy-6-(piperidin-4-ylmethoxy)-benzo[1,2,4]triazin-3-ylamine.hydrochloride]

inhibition at 100 µM (KDR (h)): 11% | inhibition at 100 µM (p70S6K (h)): 52%
SMILES: Nc1nnc2ccc(OCCc3ccc(Cl)c(Cl)c3)cc2n1 [Example 30, 6-[2-(3,4-Dichloro-phenyl)-ethoxy]-benzo[1,2,4]triazin-3-ylamine]

The remaining lines, values behind:

SMILES: CN(C)CCCOc1ccc(Cl)cc1NC(=O)Nc1nnc2ccccc2n1 [Example 9, 1-Benzo[1,2,4]triazin-3-yl-3-[5-chloro-2-(3-dimethylamino-propoxy)-phenyl]-urea]
inhibition at 100 µM (CHK1 (h)): 93%

SMILES: Nc1nnc2cc(-c3ccn[nH]3)ccc2n1 [Example 14, 7-(2H-Pyrazol-3-yl)-benzo[1,2,4]triazin-3-ylamine]
inhibition at 100 µM (KDR (h)): 89% | inhibition at 100 µM (p70S6K (h)): 47% | inhibition at 100 µM (CHK1 (h)): 20% | inhibition at 100 µM (Aurora-A (h)): 81%

SMILES: Nc1nc2ccc(-c3ccn[nH]3)cc2[n+]([O-])n1 [Example 15, 1-Oxy-7-(2H-pyrazol-3-yl)-benzo[1,2,4]triazin-3-ylamine]
KDR (h) % inhibition (KDR (h)): 46% | P70S6 (h) % inhibition (p70S6K (h)): 29% | Chk1 (h) % inhibition (CHK1 (h)): 10% | AuroraA (h) % inhibition (Aurora-A (h)): 90%

SMILES: [O-][n+]1nc(-c2cc[nH]n2)nc2ccccc21 [Example 17, 3-(1H-Pyrazol-3-yl)-benzo[1,2,4]triazine 1-oxide]
inhibition at 100 µM (KDR (h)): 0% | inhibition at 100 µM (p70S6K (h)): 0% | inhibition at 100 µM (Aurora-A (h)): 39%

SMILES: O=C(Nc1ccc2nncnc2c1)Nc1cnccn1 [Example 18, 1-Benzo[1,2,4]triazin-6-yl-3-pyrazin-2-yl-urea]
inhibition at 100 µM (CHK1 (h)): 23%

SMILES: [O-][n+]1nc(Nc2cccnc2)nc2cc(Cl)ccc21 [Example 22, (6-Chloro-1-oxy-benzo[1,2,4]triazin-3-yl)-pyridin-3-yl-amine]
AuroraA (h) % inhibition (Aurora-A (h)): 82%

SMILES: c1ccc(-c2ccc3nnc(Nc4cccnc4)nc3c2)cc1 [Example 23, (6-Phenyl-benzo[1,2,4]triazin-3-yl)-pyridin-3-yl-amine]
inhibition at 100 µM (Abl (h)): 80% | inhibition at 100 µM (Arg (h)): 83% | inhibition at 100 µM (Aurora-A (h)): 68%

SMILES: Nc1nc2cc(N3CCNCC3)ccc2[n+]([O-])n1 [Example 25, 1-Oxy-6-piperazin-1-yl-benzo[1,2,4]triazin-3-ylamine]
KDR (h) % inhibition (KDR (h)): 18% | P70S6 (h) % inhibition (p70S6K (h)): 43%

SMILES: Nc1nnc2ccc(N3CCNCC3)cc2n1 [Example 26, 6-Piperazin-1-yl-benzo[1,2,4]triazin-3-ylamine]
inhibition at 100 µM (KDR (h)): 98% | inhibition at 100 µM (p70S6K (h)): 37%

SMILES: Cl.Nc1nnc2ccc(OCC3CCNCC3)cc2n1 [Example 28, 6-(Piperidin-4-ylmethoxy)-benzo[1,2,4]triazin-3-ylamine.hydrochloride]
KDR (h) % inhibition (KDR (h)): 6% | P70S6 (h) % inhibition (p70S6K (h)): 47%

SMILES: Nc1nc2cc(OCCc3ccc(Cl)c(Cl)c3)ccc2[n+]([O-])n1 [Example 29, 6-[2-(3,4-Dichloro-phenyl)-ethoxy]-1-oxy-benzo[1,2,4]triazin-3-ylamine]
KDR (h) % inhibition (KDR (h)): 0% | P70S6 (h) % inhibition (p70S6K (h)): 49%
